Molecular target: T1, CCR2 (Homo sapiens, UniProt P41597)
T1 construct: expressed in transfected cells
Assay: CCR2 calcium activity assay (FLIPR Tetra) in HEK-Gqi5 cells stably expressing CCR2
Format: cell-based
Conditions: calcium activity on FLIPR Tetra, chemokine positive control agonist; for IC50: read-out: IC50 (nM), activity at CCR2 receptor
Method: HEK-Gqi5 cells stably expressing CCR2 were cultured in DMEM high glucose, 10% FBS, 1% PSA, 400 μg/ml geneticin and 50 μg/ml hygromycin. Appropriate positive control chemokines (MCP-1, MIP1A or RANTES) was used as the positive control agonist for screening compound-induced calcium activity assayed on the FLIPR^Tetra. The drug plates were prepared in 384-well microplates using the EP3 and the MultiPROBE robotic liquid handling systems. Compounds were synthesized and tested for CCR2 activity.

T1 sequence (P41597 whole entry, species assumed): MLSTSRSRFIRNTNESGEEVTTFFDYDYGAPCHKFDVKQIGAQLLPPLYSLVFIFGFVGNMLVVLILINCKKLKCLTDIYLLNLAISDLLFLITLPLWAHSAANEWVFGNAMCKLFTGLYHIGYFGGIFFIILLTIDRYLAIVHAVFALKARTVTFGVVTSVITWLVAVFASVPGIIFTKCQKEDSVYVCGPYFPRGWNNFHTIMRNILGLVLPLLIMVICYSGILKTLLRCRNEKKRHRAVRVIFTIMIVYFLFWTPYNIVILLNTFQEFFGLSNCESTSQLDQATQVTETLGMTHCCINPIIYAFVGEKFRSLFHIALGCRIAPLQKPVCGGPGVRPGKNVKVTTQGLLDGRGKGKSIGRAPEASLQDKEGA

Row | SMILES | % ANTAGONISM | IC50
1 | O=S(=O)(Nc1cncnc1SCc1ccccc1)c1cc2ccccc2o1 [Compound 1, N-[4-(benzylsulfanyl)pyrimidin-5-yl]-1-benzofuran-2-sulfonamide] | 44% | –
2 | O=S(=O)(Cc1ccccc1)c1ncncc1NS(=O)(=O)c1cc2ccccc2o1 [Compound 2, N-[4-(benzylsulfonyl)pyrimidin-5-yl]-1-benzofuran-2-sulfonamide] | 101% | 135 nM
3 | O=S(=O)(Nc1cncnc1[S+]([O-])Cc1ccccc1)c1cc2ccccc2o1 (centres unmarked) [Compound 3, N-[4-(benzylsulfinyl)pyrimidin-5-yl]-1-benzofuran-2-sulfonamide] | 95% | 588 nM
4 | O=S(=O)(Nc1ccncc1SCc1ccccc1)c1cc2ccccc2o1 [Compound 4, N-[3-(benzylsulfanyl)pyridin-4-yl]-1-benzofuran-2-sulfonamide] | 100% | 485 nM
5 | O=S(=O)(Nc1cc[n+]([O-])cc1SCc1ccccc1)c1cc2ccccc2o1 [Compound 5, N-[3-(benzylsulfanyl)-1-oxidopyridin-4-yl]-1-benzofuran-2-sulfonamide] | 94% | 8 nM
6 | O=S(=O)(Cc1ccccc1)c1cnccc1NS(=O)(=O)c1cc2ccccc2o1 [Compound 6, N-[3-(benzylsulfonyl)pyridin-4-yl]-1-benzofuran-2-sulfonamide] | 95% | 17 nM
7 | O=S(=O)(Nc1cc(Cl)cnc1SCc1ccccc1)c1ccc(Cl)c(Cl)c1 [Compound 7, N-[2-(benzylsulfanyl)-5-chloropyridin-3-yl]-3,4-dichlorobenzenesulfonamide] | 46% | –
8 | O=S(=O)(Nc1cc(Cl)cnc1SCc1ccccc1)c1ccc(Cl)s1 [Compound 8, N-[2-(benzylsulfanyl)-5-chloropyridin-3-yl]-5-chlorothiophene-2-sulfonamide] | 60% | –
9 | O=S(=O)(Cc1ccccc1)c1ncc(Cl)cc1NS(=O)(=O)c1ccc(Cl)c(Cl)c1 [Compound 9, N-[2-(benzylsulfonyl)-5-chloropyridin-3-yl]-3,4-dichlorobenzenesulfonamide] | 97% | 37 nM
10 | O=S(=O)(Nc1cc(Cl)cnc1[S+]([O-])Cc1ccccc1)c1ccc(Cl)c(Cl)c1 (centres unmarked) [Compound 10, N-[2-(benzylsulfinyl)-5-chloropyridin-3-yl]-3,4-dichlorobenzenesulfonamide] | 87% | 119 nM
11 | O=S(=O)(Cc1ccccc1)c1ncc(Cl)cc1NS(=O)(=O)c1ccc(Cl)s1 [Compound 11, N-[2-(benzylsulfonyl)-5-chloropyridin-3-yl]-5-chlorothiophene-2-sulfonamide] | 89% | 263 nM
12 | O=S(=O)(Nc1cc(Cl)cnc1[S+]([O-])Cc1ccccc1)c1ccc(Cl)s1 (centres unmarked) [Compound 12, N-[2-(benzylsulfinyl)-5-chloropyridin-3-yl]-5-chlorothiophene-2-sulfonamide] | 77% | –
